Laboratory results as given in PMC10052977, “α,ω-Diacyl-Substituted Analogues of Natural and Unnatural Polyamines: Identification of Potent Bactericides That Selectively Target Bacterial Membranes” (International Journal of Molecular Sciences, 2023).
Converted amounts (≈) assume the structure as drawn.

Columns and labels:
human red blood cells = experiment: Hemolytic assay; format: cell-based; settings: mean (n = 2)
Description: Human whole blood was washed three times with 3 volumes of 0.9% NaCl and then resuspended in same to a concentration of 0.5 × 10^8 cells/mL, as determined by manual cell count in a Neubauer hemocytometer. The washed cells were then added to the 384-well compound-containing plates for a final volume of 50 μL. After a 10 min shake on a plate shaker, the plates were then incubated for 1 h at 37 °C. After incubation, the plates were centrifuged at 1000× g for 10 min to pellet cells and debris; 25 μL of the supernatant was then transferred to a polystyrene 384-well assay plate. Hemolysis was determined by measuring the supernatant absorbance at […] (OD405). The absorbance was measured using a Tecan M1000 Pro monochromator plate reader. HC10 and HC50 (concentration at 10% and 50% hemolysis, respectively) were calculated by curve fitting the inhibition values vs. log (concentration) using a sigmoidal dose–response function with variable fitting values for top, bottom and slope.

[1] = tested on: Escherichia coli ATCC 25922; experiment: MIC, CO-ADD broth microdilution; format: cell-based; settings: ATCC25922, mean (n = 2)
[2] = tested on: Klebsiella pneumoniae ATCC700603; experiment: MIC, CO-ADD broth microdilution; format: cell-based; settings: mean (n = 2)
[3] = tested on: Acinetobacter baumannii ATCC19606; experiment: MIC, CO-ADD broth microdilution; format: cell-based; settings: mean (n = 2)
[4] = tested on: Staphylococcus aureus ATCC 25923 or ATCC 29213; experiment: MIC, broth dilution (CA-SFM); format: cell-based; settings: Staphylococcus aureus ATCC 25923 or ATCC 29213; mean (n = 3); read-out: MIC S. a
[5] = Cytotoxicity assay (resazurin); format: cell-based, human; settings: human; HEK293 cells; mean (n = 2); highest dose tested 32 μg/mL; read-out: Cytotoxicity (concentration of compound at 50% cytotoxicity, IC50)
[6] = tested on: Candida albicans ATCC90028; experiment: Antifungal MIC, CO-ADD; format: cell-based; settings: mean (n = 2)
Description: (§1) For the antifungal assay, fungi strains were cultured for 3 days on YPD agar at 30 °C. A yeast suspension of 1 × 10^6 to 5 × 10^6 CFU/mL was prepared from five colonies. These stock suspensions were diluted with yeast nitrogen base (YNB) (Becton Dickinson, 233520) broth to a final concentration of 2.5 × 10^3 CFU/mL. […] Plates were covered and incubated at 35 °C for 36 h without shaking. C. albicans MICs were determined by measuring the absorbance at OD530. […] Fluconazole was used as a positive fungal inhibitor standard for C. albicans and C. neoformans. […] Quality control (QC) of the assays was determined by antimicrobial controls and Z’-factor (using positive and negative controls).

[7] = tested on: Cryptococcus neoformans ATCC208821; experiment: Antifungal MIC, CO-ADD; format: cell-based; settings: ATCC208821, Cryptococcus neoformans ATCC208821, mean (n = 2)
Description: as §1

[8] = tested on: Pseudomonas aeruginosa PAO1 or ATCC 27853; experiment: MIC, broth dilution (CA-SFM); format: cell-based; settings: mean (n = 3)
MRSA ATCC 43300 = experiment: MIC, CO-ADD broth microdilution; format: cell-based, Staphylococcus aureus; settings: Staphylococcus aureus; MRSA ATCC 43300; mean (n = 2); read-out: MIC MRSA

| Structure (SMILES) | Hemolysis (HC10, concentration at 10% hemolytic activity) (human red blood cells) [µM] | MIC [1] [µM] | MIC [2] [µM] | MIC [3] [µM] | MIC [4] [µM] | IC50 at 20 h [5] [µM] | MIC [6] [µM] | MIC [7] [µM] | MIC [8] [µM] | MIC (MRSA ATCC 43300) [µM] |
| --- | --- | --- | --- | --- | --- | --- | --- | --- | --- | --- |
| O=C(CC(c1ccccc1)c1ccccc1)NCCCNCCCCCCNCCCNC(=O)CC(c1ccccc1)c1ccccc1.O=C(O)C(F)(F)F.O=C(O)C(F)(F)F [Compound 15b, N^1,N^6-Bis(3-(3,3-diphenylpropanamido)propyl)hexane-1,6-diaminium 2,2,2-trifluoroacetate] | >36.6 | 4.6 | > 36.6 | > 36.6 | 12.5 | > 36.6 | > 36.6 | > 36.6 | 100 | ≤ 0.29 |
| O=C(CC(c1ccccc1)c1ccccc1)NCCCNCCCCCCCNCCCNC(=O)CC(c1ccccc1)c1ccccc1.O=C(O)C(F)(F)F.O=C(O)C(F)(F)F [Compound 15c, N^1,N^7-Bis(3-(3,3-diphenylpropanamido)propyl)heptane-1,7-diaminium 2,2,2-trifluoroacetate] | >36.0 | 2.3 | > 36 | > 36 | 6.25 | > 36 | > 36 | ≤ 0.28 | 100 | ≤ 0.28 |
| O=C(CC(c1ccccc1)c1ccccc1)NCCCNCCCCCCCCCCNCCCNC(=O)CC(c1ccccc1)c1ccccc1.O=C(O)C(F)(F)F.O=C(O)C(F)(F)F [Compound 15e, N^1,N^10-Bis(3-(3,3-diphenylpropanamido)propyl)decane-1,10-diaminium 2,2,2-trifluoroacetate] | >34.4 | ≤ 0.27 | > 34.4 | 2.15 | 3.13 | > 34.4 | > 34.4 | > 34.4 | 200 | ≤ 0.27 |
| O=C(CC(c1ccccc1)c1ccccc1)NCCCNCCCCCCCCCCCCNCCCNC(=O)CC(c1ccccc1)c1ccccc1.O=C(O)C(F)(F)F.O=C(O)C(F)(F)F [Compound 15f, N^1,N^12-Bis(3-(3,3-diphenylpropanamido)propyl)dodecane-1,12-diaminium 2,2,2-trifluoroacetate] | 1.17 | 2.1 | > 33.4 | 1 | 1.56 | 5.46 | 8.34 | ≤ 0.28 | 200 | ≤ 0.26 |
| O=C(CCC(=O)NCCC(c1ccccc1)c1ccccc1)NCCCNCCCCCCNCCCNC(=O)CCC(=O)NCCC(c1ccccc1)c1ccccc1 [Compound 16b, N^1,N^6-Bis(3-(4-((3,3-diphenylpropyl)amino)-4-oxobutanamido)propyl)hexane-1,6-diaminium 2,2,2-trifluroracetate] | >30.6 | > 30.6 | > 30.6 | > 30.6 | 24 (≈ 19.6 µg/mL) | > 30.6 | > 30.6 | > 30.6 | 480 (≈ 392 µg/mL) | ≤ 0.24 |
| O=C(CCC(=O)NCCC(c1ccccc1)c1ccccc1)NCCCNCCCCCCCNCCCNC(=O)CCC(=O)NCCC(c1ccccc1)c1ccccc1.O=C(O)C(F)(F)F.O=C(O)C(F)(F)F [Compound 16c, N^1,N^7-Bis(3-(4-((3,3-diphenylpropyl)amino)-4-oxobutanamido)propyl)heptane-1,7-diaminium 2,2,2-trifluoroacetate] | >30.2 | > 30.2 | > 30.2 | > 30.2 | 24 | > 30.2 | > 30.2 | 30.2 | 480 | ≤ 0.24 |
| O=C(CCC(=O)NCCC(c1ccccc1)c1ccccc1)NCCCNCCCCCCCCNCCCNC(=O)CCC(=O)NCCC(c1ccccc1)c1ccccc1.O=C(O)C(F)(F)F.O=C(O)C(F)(F)F [Compound 16d, N^1,N^8-Bis(3-(4-((3,3-diphenylpropyl)amino)-4-oxobutanamido)propyl)octane-1,8-diaminium 2,2,2-trifluoroacetate] | >29.8 | > 29.8 | > 29.8 | > 29.8 | 12.5 | > 29.8 | > 29.8 | > 29.8 | 300 | ≤ 0.23 |
| O=C(CCC(=O)NCCC(c1ccccc1)c1ccccc1)NCCCNCCCCCCCCCCNCCCNC(=O)CCC(=O)NCCC(c1ccccc1)c1ccccc1.O=C(O)C(F)(F)F.O=C(O)C(F)(F)F [Compound 16e, N^1,N^10-Bis(3-(4-((3,3-diphenylpropyl)amino)-4-oxobutanamido)propyl)decane-1,10-diaminium 2,2,2-trifluoroacetate] | 17.9 | 14.5 | 29.1 | 29.1 | 12.5 | 17.3 | 29.1 | ≤ 0.28 | 200 | ≤ 0.23 |
| O=C(CCC(=O)NCCC(c1ccccc1)c1ccccc1)NCCCNCCCCCCCCCCCCNCCCNC(=O)CCC(=O)NCCC(c1ccccc1)c1ccccc1 [Compound 16f, N^1,N^12-Bis(3-(4-((3,3-diphenylpropyl)amino)-4-oxobutanamido)propyl)dodecane-1,12-diaminium 2,2,2-trifluroracetate] | 3.17 | > 28.3 | > 28.3 | > 28.3 | 3.13 (≈ 2.82 µg/mL) | > 28.3 | > 28.3 | > 28.3 | 300 (≈ 270 µg/mL) | ≤ 0.22 |
| O=C(NCCCNCCCCNCCCNC(=O)C(c1ccccc1)(c1ccccc1)c1ccccc1)C(c1ccccc1)(c1ccccc1)c1ccccc1.O=C(O)C(F)(F)F.O=C(O)C(F)(F)F [Compound 17a, N^1,N^4-Bis(3-(2,2,2-triphenylacetamido)propyl)butane-1,4-diaminium 2,2,2-trifluoroacetate] | 5.57 | 1.03 | > 33 | 8.24 | 6.25 | 0.329 | > 33 | < 0.26 | 300 | < 0.26 |
| O=C(NCCCNCCCCCCNCCCNC(=O)C(c1ccccc1)(c1ccccc1)c1ccccc1)C(c1ccccc1)(c1ccccc1)c1ccccc1.O=C(O)C(F)(F)F.O=C(O)C(F)(F)F [Compound 17b, N^1,N^6-Bis(3-(2,2,2-triphenylacetamido)propyl)hexane-1,6-diaminium 2,2,2-trifluoroacetate] | 6.27 | 4 | 32 | 4 | 6.25 | ≤ 0.25 | 16 | < 0.25 | 300 | < 0.25 |
| O=C(NCCCNCCCCCCCNCCCNC(=O)C(c1ccccc1)(c1ccccc1)c1ccccc1)C(c1ccccc1)(c1ccccc1)c1ccccc1.O=C(O)C(F)(F)F.O=C(O)C(F)(F)F [Compound 17c, N^1,N^7-Bis(3-(2,2,2-triphenylacetamido)propyl)heptane-1,7-diaminium 2,2,2-trifluoroacetate] | 8.16 | 7.9 | 31.6 | 3.95 | 12.5 | ≤ 0.247 | 15.8 | 15.8 | 300 | < 0.25 |
| O=C(NCCCNCCCCCCCCNCCCNC(=O)C(c1ccccc1)(c1ccccc1)c1ccccc1)C(c1ccccc1)(c1ccccc1)c1ccccc1.O=C(O)C(F)(F)F.O=C(O)C(F)(F)F [Compound 17d, N^1,N^8-Bis(3-(2,2,2-triphenylacetamido)propyl)octane-1,8-diaminium 2,2,2-trifluoroacetate] | 0.719 | 15.6 | > 31.2 | 7.79 | 6.25 | ≤ 0.243 | 15.6 | < 0.24 | 300 | < 0.24 |
